From US20080171750A1, “Modulation Of Neurogenesis With Use of Modafinil” (BrainCells, Inc., priority 2007, published 2008)
Where two headings read alike, the source gives them in different places.

What was measured:
[1] = test system: Human neural stem cells (hNSCs); experiment: Neuronal differentiation of human neural stem cells (TUJ-1 staining); type: cell-based; conditions: for maximum neuronal differentiation percent of positive control: basal media values subtracted, 0.01 μM to 31.6 μM
Method: Mitogen-free test media with a positive control for neuronal differentiation was used along with basal media without growth factors as a negative control.
The presence of synergy was determined by use of a combination index (CI). […] The CI is a quantitative measure of the nature of drug interactions, comparing the EC50's of two compounds, when each is assayed alone, to the EC50 of each compound when assayed in combination. The combination index (CI) is equal to the following formula: […]
where C1 and C2 are the concentrations of a first and a second compound, respectively, resulting in 50% activity in neuronal differentiation when assayed in combination; and IC1 and IC2 are the concentrations of each compound resulting in 50% activity when assayed independently.

[2] = test system: Human neural stem cells (hNSCs); experiment: Astrocyte differentiation of human neural stem cells (GFAP staining); type: cell-based
[3] = test system: Group I or Group III receptors; conditions: at sub-mM concentrations; cited from earlier work
mGluR3 = mGluR3 (Homo sapiens, UniProt Q14832); conditions: read-out: IC50 against mGluR3; cited from earlier work
Chain of mGluR3 (Q14832 23-879): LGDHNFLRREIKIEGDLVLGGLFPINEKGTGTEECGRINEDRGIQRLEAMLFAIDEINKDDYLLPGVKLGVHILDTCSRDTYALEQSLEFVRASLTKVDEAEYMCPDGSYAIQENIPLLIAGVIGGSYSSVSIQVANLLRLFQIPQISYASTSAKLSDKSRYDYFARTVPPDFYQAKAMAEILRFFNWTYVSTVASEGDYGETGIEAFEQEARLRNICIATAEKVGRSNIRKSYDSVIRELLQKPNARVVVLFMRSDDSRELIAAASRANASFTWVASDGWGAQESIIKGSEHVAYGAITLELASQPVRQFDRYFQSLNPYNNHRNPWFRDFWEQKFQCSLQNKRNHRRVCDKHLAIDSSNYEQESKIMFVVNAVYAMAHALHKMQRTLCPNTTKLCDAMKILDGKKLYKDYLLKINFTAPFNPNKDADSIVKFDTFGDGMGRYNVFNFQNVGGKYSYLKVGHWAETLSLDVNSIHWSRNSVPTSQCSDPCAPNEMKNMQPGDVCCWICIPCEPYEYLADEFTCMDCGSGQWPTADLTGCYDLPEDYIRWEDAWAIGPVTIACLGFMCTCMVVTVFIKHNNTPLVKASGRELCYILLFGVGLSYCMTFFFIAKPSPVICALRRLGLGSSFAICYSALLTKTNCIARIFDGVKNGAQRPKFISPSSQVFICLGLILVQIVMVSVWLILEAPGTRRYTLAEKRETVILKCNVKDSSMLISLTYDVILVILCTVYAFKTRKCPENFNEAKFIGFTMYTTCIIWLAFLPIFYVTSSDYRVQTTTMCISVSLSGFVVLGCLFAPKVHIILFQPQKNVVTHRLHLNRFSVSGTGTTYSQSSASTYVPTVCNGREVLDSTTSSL

mGluR2 = mGluR2 (Homo sapiens, UniProt Q14416); conditions: read-out: IC50 against mGluR2; cited from earlier work
Chain of mGluR2 (Q14416 19-872): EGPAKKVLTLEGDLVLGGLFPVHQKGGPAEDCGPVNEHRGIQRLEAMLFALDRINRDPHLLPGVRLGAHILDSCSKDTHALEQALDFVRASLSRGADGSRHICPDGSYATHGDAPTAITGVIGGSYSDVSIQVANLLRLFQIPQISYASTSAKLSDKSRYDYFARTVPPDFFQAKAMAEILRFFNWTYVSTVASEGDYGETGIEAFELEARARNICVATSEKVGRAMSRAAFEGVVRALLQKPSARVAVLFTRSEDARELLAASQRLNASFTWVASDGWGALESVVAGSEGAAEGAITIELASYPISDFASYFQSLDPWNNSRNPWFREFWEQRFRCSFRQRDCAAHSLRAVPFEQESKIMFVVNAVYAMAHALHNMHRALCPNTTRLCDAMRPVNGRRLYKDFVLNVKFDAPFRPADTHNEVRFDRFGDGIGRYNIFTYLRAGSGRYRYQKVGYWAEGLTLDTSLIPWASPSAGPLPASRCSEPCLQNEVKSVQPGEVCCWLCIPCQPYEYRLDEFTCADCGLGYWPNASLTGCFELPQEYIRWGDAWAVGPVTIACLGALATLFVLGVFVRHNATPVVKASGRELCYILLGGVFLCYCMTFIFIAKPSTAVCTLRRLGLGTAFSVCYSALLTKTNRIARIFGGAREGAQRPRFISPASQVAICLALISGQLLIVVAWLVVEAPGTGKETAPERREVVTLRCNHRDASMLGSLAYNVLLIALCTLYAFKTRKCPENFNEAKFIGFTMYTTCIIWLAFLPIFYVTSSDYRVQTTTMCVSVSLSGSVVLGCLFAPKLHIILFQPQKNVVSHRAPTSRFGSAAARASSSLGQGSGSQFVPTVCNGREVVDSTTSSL

[4] = test system: KA, AMPA, and NMDA iGlu receptors; conditions: cited from earlier work
human mGlu3 receptors = human mGlu3 receptors (Homo sapiens, UniProt Q14832); conditions: low nanomolar range; read-out: EC50 against human mGlu3 receptors in vitro; cited from earlier work
Chain of human mGlu3 receptors (Q14832 23-879): as the sequence (Q14832 23-879) above

human mGlu2 receptors = human mGlu2 receptors (Homo sapiens, UniProt Q14416); conditions: low nanomolar range; read-out: EC50 against human mGlu2 receptors in vitro; cited from earlier work
Chain of human mGlu2 receptors (Q14416 19-872): as the sequence (Q14416 19-872) above

[5] = Homo sapiens, Neural stem cell, read-out: EC50, neuronal differentiation, agent alone (FIG. 8 experiment)
[6] = Homo sapiens, Neural stem cell, agent alone, concentration response curve 0.01 μM to 31.6 μM (antalarmin to 3.16 μM), modafinil batch of FIG. 1-3, read-out: EC50, neuronal differentiation, agent used alone

NC(=O)C[S+]([O-])C(c1ccccc1)c1ccccc1 (stereo not shown) [modafinil, 2-benzhydrylsulfinylethanamide] gave an EC50 [1, 5] of 1.93 µM, an EC50 ([1]; Homo sapiens, Neural stem cell, read-out: EC50, neuronal differentiation, agent used alone) greater than 31.6 µM and an EC50 ([1]; Homo sapiens, Neural stem cell, read-out: EC50, neuronal differentiation, modafinil alone (batch 2)) of 2.9 µM. The EC50 ([1]; Homo sapiens, Neural stem cell, read-out: EC50 of modafinil alone, estimated based on extrapolation) was roughly 83 µM, the “maximum neuronal differentiation percent of positive control” value (shortened to “maximum neuronal differentiation percent”) [1] was 19% and the astrogenesis produced ([2]; modafinil alone) was “little or no astrogenesis”.

For NCCc1c[nH]c2ccc(O)cc12 [serotonin, 5-hydroxytryptamine], the EC50 [1, 6] was roughly 6.9 µM.

For O=C1CC2(CCCC2)CC(=O)N1CCCCN1CCN(c2ncccn2)CC1 [buspirone], the EC50 [1, 6] was 8.4 µM, the “maximum neuronal differentiation percent” value [1] was 52% and the “maximum astrocyte differentiation percent of positive control” value ([2]; basal media values subtracted, 0.01 μM to 31.6 μM) was 59%.

In the case of CCCCN(CC)c1nc(C)nc2c1c(C)c(C)n2-c1c(C)cc(C)cc1C [antalarmin], the EC50 [1, 6] is reported as roughly 34.9 µM.

Work on NC(=O)C[S@@+]([O-])C(c1ccccc1)c1ccccc1 [armodafinil, (−)-2-[(R)-(diphenylmethyl)-sulfinyl]acetamide] yielded an EC50 [1, 5] of roughly 1.24 µM.

For CN1C(=O)COc2c(C(=O)NC3CN4CCC3CC4)cc(Cl)cc21 (stereo not shown) [azasetron], the EC50 [1, 6] was roughly 9.1 µM.

For NC1(C(=O)O)CCc2cc(P(=O)(O)O)ccc21 (racemic) [APICA, (RS)-1-amino-5-phosphonoindan-1-carboxylic acid], the “activity against Group I or Group III receptors” value [3] is listed as “no appreciable activity”, the IC50 (mGluR3) is listed as roughly 30 µM and the IC50 (mGluR2) is listed as roughly 30 µM.

For N[C@](CC1c2ccccc2Oc2ccccc21)(C(=O)O)[C@H]1C[C@@H]1C(=O)O [LY341495, (2S)-2-amino-2-(1S,2S-2-carboxycycloprop-1-yl)-3-(xanth-9-yl) propanoic acid], the “activity against KA, AMPA, and NMDA iGlu receptors” value [4] is listed as “substantially inactive”.

In the case of CC(=O)NCCCS(=O)(=O)O [acamprosate], the EC50 [1, 6] is reported as roughly 39.2 µM.

For Cc1oc2nc3c(c(NC(=O)CN4CCCC4=O)c2c1C)CCCC3 [MKC-231], the EC50 ([1]; agent alone, concentration response curve 0.01 μM to 31.6 μM (antalarmin to 3.16 μM), modafinil batch of FIG. 1-3, read-out: EC50, neuronal differentiation, agent used alone) was 3.9 µM and the “maximum neuronal differentiation percent” value [1] was 53%.

In the case of N[C@@]1(C(=O)O)CO[C@H]2[C@H](C(=O)O)[C@H]21 [LY379268, (−)-2-Oxa-4-aminobicyclohexane-4,6-dicarboxylic acid], the EC50 (human mGlu3 receptors) is listed as less than 0.01 µM and the EC50 (human mGlu2 receptors) is listed as less than 0.01 µM.
